Experimental findings from PubChem BioAssay AID1259411 (Chemical Carcinogenesis Research Information System (CCRIS), 2018) are described below.

In this series the test system is rodent carcinogenicity bioassays, tumor incidence. The series can be described thus: CCRIS carcinogenicity studies. The gist of the method:
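NCI-built, expert-reviewed records of carcinogenicity and related test outcomes (mutagenicity, tumor promotion/inhibition) compiled from published and report sources, historical span 1985-2011, not updated.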

Calls of active or inactive are those of the source. The rule behind the calls is not given here.

For `Cc1ccc(N=CN(C)C=Nc2ccc(C)cc2C)c(C)c1`, the carcinogen call is “active; positive (at highest dose)” (Species: Mouse, Strain/Sex: B6C3F1/Female, Route: Oral (diet), Dose: 0, 25, 100, 400 ppm in feed for 104 wks, Dose: 0, 25, 100, 400 ppm in feed for 104 wks, Tumor Site: Type of Lesion: Liver: Hepatocellular adenoma/carcinoma (5/80, 1/61, 3/62, 24/56)); “inactive; negative” (Species: Mouse, Strain/Sex: B6C3F1/Male, Route: Oral (diet), Dose: 0, 25, 100, 400 ppm in feed for 104 wks, Dose: 0, 25, 100, 400 ppm in feed for 104 wks); “inactive; negative; purity 97.8 and 99.8%” (Species: Rat, Strain/Sex: Wistar/Female, Route: Oral (diet), Dose: 0, 15, 50, 200 ppm in feed for 104 wks, Dose: 0, 15, 50, 200 ppm in feed for 104 wks); “inactive; negative; purity 97.8 and 99.8%” (Species: Rat, Strain/Sex: Wistar/Male, Route: Oral (diet), Dose: 0, 15, 50, 200 ppm in feed for 104 wks, Dose: 0, 15, 50, 200 ppm in feed for 104 wks).
Regarding `CCCCCCCC/C=C/CCCCCCCC(=O)OCCOCC(OCCO)C1OCC(OCCO)C1OCCO` (stereo not drawn), the carcinogen call (Species: MOUSE, Strain/Sex: B6C3F1/FEMALE, Route: ORAL, Dose: 0, 25000, 50000 PPM IN FEED 7 D/WK FOR 103 WK (STUDY DURATION: 103 WK), Dose: 0, 25000, 50000 PPM IN FEED 7 D/WK FOR 103 WK (STUDY DURATION: 103 WK)) was “inactive; negative”; the carcinogen call (Species: MOUSE, Strain/Sex: B6C3F1/MALE, Route: ORAL, Dose: 0, 25000, 50000 PPM IN FEED 7 D/WK FOR 103 WK (STUDY DURATION: 103 WK), Dose: 0, 25000, 50000 PPM IN FEED 7 D/WK FOR 103 WK (STUDY DURATION: 103 WK)) was “inactive; negative”; the carcinogen call (Species: RAT, Strain/Sex: F344/FEMALE, Route: ORAL, Dose: 0, 25000, 50000 PPM IN FEED 7 D/WK FOR 103 WK (STUDY DURATION: 103 WK), Dose: 0, 25000, 50000 PPM IN FEED 7 D/WK FOR 103 WK (STUDY DURATION: 103 WK)) is “inactive; negative”; the carcinogen call (Species: RAT, Strain/Sex: F344/MALE, Route: ORAL, Dose: 0, 25000, 50000 PPM IN FEED 7 D/WK FOR 103 WK (STUDY DURATION: 103 WK), Dose: 0, 25000, 50000 PPM IN FEED 7 D/WK FOR 103 WK (STUDY DURATION: 103 WK), Tumor Site: Type of Lesion: ADRENAL MEDULLA: PHEOCHROMOCYTOMA) is reported as “equivocal”.
Regarding `COCc1cnc(C2=NC(C)(C(C)C)C(=O)N2)c(C(=O)O)c1` (stereo not drawn), the carcinogen call was “inactive; negative” (Species: Mouse, Strain/Sex: CD-1/Female (55/Group), Route: Oral, Dose: 0, 96, 664, 1348 mg/kg/day of 97.1% imazamox in diet for at least 18 mo, study duration at least 18 mo, Dose: 0, 96, 664, 1348 mg/kg/day of 97.1% imazamox in diet for at least 18 mo, study duration at least 18 mo); “inactive; negative” (Species: Mouse, Strain/Sex: CD-1/Male (55/Group), Route: Oral, Dose: 0, 73, 535, 1053 mg/kg/day of 97.1% imazamox in diet for at least 18 mo, study duration at least 18 mo, Dose: 0, 73, 535, 1053 mg/kg/day of 97.1% imazamox in diet for at least 18 mo, study duration at least 18 mo); “inactive; negative” (Species: Rat, Strain/Sex: Sprague-Dawley/Female (65/Group), Route: Oral, Dose: 0, 63, 626, 1284 mg/kg/day of 97.1% imazamox in diet for 24 mo, study duration 24 mo, Dose: 0, 63, 626, 1284 mg/kg/day of 97.1% imazamox in diet for 24 mo, study duration 24 mo); “inactive; negative” (Species: Rat, Strain/Sex: Sprague-Dawley/Male (65/Group), Route: Oral, Dose: 0, 52, 528, 1068 mg/kg/day of 97.1% imazamox in diet for 24 mo, study duration 24 mo, Dose: 0, 52, 528, 1068 mg/kg/day of 97.1% imazamox in diet for 24 mo, study duration 24 mo).
On to `CN(C)c1ccc(C(=C2C=CC(=[N+](C)C)C=C2)c2ccccc2)cc1`, for which the carcinogen call is, setting by setting: (Species: MOUSE, Strain/Sex: B6C3F1/FEMALE, Route: ORAL (DIET), Dose: 0, 100, 225, 450 PPM IN DIET FOR 2 YRS, Dose: 0, 100, 225, 450 PPM IN DIET FOR 2 YRS) “inactive; negative”; (Species: RAT, Strain/Sex: F344/N/FEMALE, Route: ORAL (DIET), Dose: 0, 100, 300, 600 PPM IN DIET FOR 2 YRS, Dose: 0, 100, 300, 600 PPM IN DIET FOR 2 YRS, Tumor Site: Type of Lesion: THYROID: FOLLICULAR CELL ADENOMA OR CARCINOMA, LIVER: HEPATOCELLULAR ADENOMA, MAMMARY GLAND: CARCINOMA, Tumor Site: Type of Lesion: THYROID: FOLLICULAR CELL ADENOMA OR CARCINOMA, LIVER: HEPATOCELLULAR ADENOMA, MAMMARY GLAND: CARCINOMA) “equivocal; none of the tumor incidences reached statistical significance; in som”.
For the compound `[2H]c1c([2H])c([2H])c2c(C([2H])([2H])[2H])c3c(c([2H])c([2H])c4c([2H])c([2H])c([2H])c([2H])c43)c(C([2H])([2H])[2H])c2c1[2H]`, the carcinogen call is “active; positive” (Species: MOUSE, Strain/Sex: SWISS/FEMALE, Route: SUBCUTANEOUS, Dose: IN OLIVE OIL 1/MO FOR 3 MO FOR A TOTAL DOSE OF 0, 1.5 MG (STUDY DURATION: 395 D), Tumor Site: Type of Lesion: INJECTION SITE: FIBROBLASTIC SARCOMA) and “active; positive” (Species: MOUSE, Strain/Sex: SWISS/MALE, Route: SUBCUTANEOUS, Dose: IN OLIVE OIL 1/MO FOR 3 MO FOR A TOTAL DOSE OF 0, 1.5 MG (STUDY DURATION: 395 D), Tumor Site: Type of Lesion: INJECTION SITE: FIBROBLASTIC SARCOMA).
With `CCCCCCCCCCCCN(C)N=O`, the carcinogen call (Species: RAT, Strain/Sex: F344/MALE, Route: GAVAGE, Dose: 60 MG/ML IN CORN OIL 2/WK FOR 30 WK, STUDY DURATION: 112 WK, Tumor Site: Type of Lesion: LUNG: ADENOCARCINOMA, FORESTOMACH: CARCINOMA, BLADDER, Tumor Site: Type of Lesion: LUNG: ADENOCARCINOMA, FORESTOMACH: CARCINOMA, BLADDER) is “active; positive”.
As to `COc1cc(S(=O)(=O)O)c(C)cc1N=Nc1c(O)ccc2cc(S(=O)(=O)O)ccc12`, the carcinogen call was “inactive; negative” (Species: MOUSE, Strain/Sex: CD-1/FEMALE, Route: ORAL, Dose: 0, 0.37, 1.39, 5.19% IN DIET FOR LIFE TO OFFSPRING OF ANIMALS ADMINISTERED THE SAME DOSES DURING BREEDING, GESTATION AND, Dose: 0, 0.37, 1.39, 5.19% IN DIET FOR LIFE TO OFFSPRING OF ANIMALS ADMINISTERED THE SAME DOSES DURING BREEDING, GESTATION AND); “inactive; negative” (Species: MOUSE, Strain/Sex: CD-1/MALE, Route: ORAL, Dose: 0, 0.37, 1.39, 5.19% IN DIET FOR LIFE TO OFFSPRING OF ANIMALS ADMINISTERED THE SAME DOSES DURING BREEDING, GESTATION AND, Dose: 0, 0.37, 1.39, 5.19% IN DIET FOR LIFE TO OFFSPRING OF ANIMALS ADMINISTERED THE SAME DOSES DURING BREEDING, GESTATION AND); “inactive; negative” (Species: MOUSE, Strain/Sex: HAM/ICR/FEMALE, Route: ORAL, Dose: 0, 0.37, 1.39, 5.19% IN DIET FOR LIFE TO OFFSPRING OF ANIMALS ADMINISTERED THE SAME DOSES DURING BREEDING, GESTATION AND, Dose: 0, 0.37, 1.39, 5.19% IN DIET FOR LIFE TO OFFSPRING OF ANIMALS ADMINISTERED THE SAME DOSES DURING BREEDING, GESTATION AND); “inactive; negative” (Species: MOUSE, Strain/Sex: HAM/ICR/MALE, Route: ORAL, Dose: 0, 0.37, 1.39, 5.19% IN DIET FOR LIFE TO OFFSPRING OF ANIMALS ADMINISTERED THE SAME DOSES DURING BREEDING, GESTATION AND, Dose: 0, 0.37, 1.39, 5.19% IN DIET FOR LIFE TO OFFSPRING OF ANIMALS ADMINISTERED THE SAME DOSES DURING BREEDING, GESTATION AND); “inactive; negative” (Species: RAT, Strain/Sex: SPRAGUE-DAWLEY/FEMALE, Route: ORAL, Dose: 0, 0.37, 1.39, 5.19% OF DIET BEGINNING WITH PARENTAL GENERATION AND CONTINUING WITH THE OFFSPRING FOLLOWING WEANING (STU, Dose: 0, 0.37, 1.39, 5.19% OF DIET BEGINNING WITH PARENTAL GENERATION AND CONTINUING WITH THE OFFSPRING FOLLOWING WEANING (STU); “inactive; negative” (Species: RAT, Strain/Sex: SPRAGUE-DAWLEY/MALE, Route: ORAL, Dose: 0, 0.37, 1.39, 5.19% OF DIET BEGINNING WITH PARENTAL GENERATION AND CONTINUING WITH THE PUPS FOLLOWING WEANING (STUDY DU, Dose: 0, 0.37, 1.39, 5.19% OF DIET BEGINNING WITH PARENTAL GENERATION AND CONTINUING WITH THE PUPS FOLLOWING WEANING (STUDY DU).
